Results taken from patent US7807623B2, “Use of pentagastrin to inhibit gastric acid secretion or as a diuretic” (The Regents of the University of California, priority 1999, dated 2010).
“And” between values parts separate entries of the source, which are not always exact repeats. Equal values may be shown once.

What was measured:
[1] = test system: Pentagastrin-Induced Gastric Acid Secretion; assay: Continuous pentagastrin infusion model: gastric acid output after single i.v. dose; type: in vivo, human; details: for Acid Output, Treatment Period 0-6 h / Acid Output, Treatment Period 6-12 h / Acid Output, Treatment Period 12-18 h / Acid Output, Treatment Period 18-24 h: continuous PG 1 μg/kg/h, mean ± SD; for duration of action (time AO remained <10 mEq/h) / onset of response (time until AO decreased to <10 mEq/h and remained below for 1 h): mean±SD
Experimental: After 60 min of pentagastrin infusion, subjects received a single dose of i.v. pantoprazole (20, 40, 80, or 120 mg), i.v. famotidine (20 mg), or saline placebo. […] The study protocol was approved by the UCLA Institutional Review Board and conducted according to the provisions of the Declaration of Helsinki and its amendments. Written informed consent was obtained from each participant before enrollment, and the identity of each patient was kept confidential. Each subject underwent a prestudy screening that included a physical examination, electrocardiogram (ECG), laboratory blood and urine analysis, and a pregnancy test for women. The laboratory test included a complete blood count, blood chemistry tests, a test for human immunodeficiency virus, a screening for hepatitis B and C, and a urine drug screen. Subjects were excluded from the study if abnormalities in these parameters were detected. Maximum AO (MAO) were also determined during the screening period. MAO was estimated by the subcutaneous injection of PG (6 μg/kg), after which four 15-min samples were collected and analyzed (Table 1). […] Subjects who completed the screening examination and were eligible for the study were assigned to one of six treatment groups to receive i.v. doses of pantoprazole (20, 40, 80, or 120 mg), i.v. famotidine (20 mg), or placebo (normal saline). […] To stimulate MAO, subjects received an infusion of PG for 25 h (Peptavalon, Wyeth-Ayerst; 1.0 μg/kg/h) begun 1 h before the start of the study drug infusion. Gastric aspirates were collected by means of nasogastric (NG) tube in 15-min fractions from 1 h before study drug treatment through the end of treatment h 2 and in 30 min fractions from h 3 through the end of h 24. The variables measured were onset of response (time until AO decreased to <10 mEq/h and remained below this level for 1 h), duration of response (time from onset until time when AO levels rose to >10 mEq/h and remained so for 1 h), and cumulative AO 15 over 24 h. […] On the evening before study day 1, participants were admitted to the UCLA Clinical Research Center. […] PG administration and MAO analyses were performed. […] Because no fluid or food p.o. was permitted during the study period, subjects received maintenance i.v. fluid to prevent dehydration. Vital signs and electrolytes were monitored during this time. […] (1973) Dig. […] Because this was an exploratory study, statistical analysis consisted of presenting means and standard deviations.

[2] = Adverse event monitoring in the pentagastrin infusion study; type: in vivo, human; details: for subjects who withdrew because of adverse events: healthy subjects under continuous PG infusion
Source text: Adverse events were monitored continuously in the Clinical Research Center. Treatment-emergent adverse events were defined as adverse events not present at baseline or events present at baseline that worsened during treatment.

CCKB/gastrin receptor [3] = biological target: T1, CCKB/gastrin receptor (Rattus norvegicus, UniProt P30553); assay: Meal gavage: renal hemodynamics, sodium excretion and urine volume; type: in vivo
T1 construct: act specifically at CCKB/gastrin receptors on renal tubular cells; from tissue; host or cells: kidney of living male Wistar-Kyoto rats (in vivo)
T1 sequence (P30553 1-452): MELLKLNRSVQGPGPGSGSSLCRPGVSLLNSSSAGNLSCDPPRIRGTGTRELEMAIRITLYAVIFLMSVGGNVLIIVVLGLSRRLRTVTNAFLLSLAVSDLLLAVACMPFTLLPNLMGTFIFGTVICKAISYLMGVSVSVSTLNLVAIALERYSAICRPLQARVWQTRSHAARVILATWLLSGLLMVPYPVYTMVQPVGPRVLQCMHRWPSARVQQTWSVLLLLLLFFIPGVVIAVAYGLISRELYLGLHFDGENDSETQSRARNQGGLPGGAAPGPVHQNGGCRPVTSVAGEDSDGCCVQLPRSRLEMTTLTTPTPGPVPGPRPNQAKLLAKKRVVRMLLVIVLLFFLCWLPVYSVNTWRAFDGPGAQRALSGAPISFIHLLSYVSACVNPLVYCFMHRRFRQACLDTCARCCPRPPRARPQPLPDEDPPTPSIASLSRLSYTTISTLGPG
Experimental: (§1) Male Wistar-Kyoto rats (300 grams, 10-12 weeks old) (Harlan Sprague Dawley, Indianapolis, Ind.) were maintained on a regular Purina rat chow diet. Catheters were placed into the external jugular and femoral veins and left carotid artery and systemic arterial pressure was monitored. The right suprarenal artery was cannulated with a PE-10 catheter heat stretched to 180 mm and a flow catheter was secured around the right renal artery (Transonic Systems, Ithaca, N.Y.). GFR was determined after an intravenous infusion of normal saline containing [^14C]-inulin (0.01 mCi/10 ml (New England Nuclear, Boston, Mass.) at a rate of 5 ml/100 g body wt. for 30 minutes followed by an infusion of 1.8 ml/100 g body wt/hr). After an equilibration period of 120 minutes, 20 minute collections were begun. Meal gavage studies were performed with 2.5 ml/hr of liquefied rat chow administered via gastric tube. Gastrin 17-1 (Peninsula Laboratories, CA) was diluted in normal saline and infused (10 pmoles/kg/hr) via the right renal artery catheter. Following a basal period, rats received either L-365,260 (80 pmoles/kg, 5 min bolus) or vehicle alone and 20 minute collection periods were begun for determination of sodium and water excretion.

CCKB/gastrin receptor [4] = biological target: T1, CCKB/gastrin receptor; assay: Intrarenal gastrin infusion: renal hemodynamics, sodium excretion and urine volume; type: in vivo; details: L-365,260 80 pmoles/kg bolus after gastrin infusion
Experimental: as §1

Na+-K+-ATPase = Na+-K+-ATPase activity in isolated renal tubules after meal; type: biochemical, rat; details: direct intrarenal infusion 80 pmoles/kg prior to the meal
Experimental: Renal tubules (cortical and medullary thick ascending limb of Henle) were isolated (Slobodyansky et al. (1995) Am. J. Physiol. 268: F279-F284) and immediately homogenized (in a Polytron) in 4° C. reaction buffer [4 mM MgCl2, 100 mM tris(hydroxymethyl)aminomethane HCl, pH7.2]. The dephosphorylation of tris(hydroxymethyl)aminomethane-p-nitrophenyl-phosphate was used as the index of Na^+-K^+-ATPase activity (Eisner et al. (1997) Am. J. Physiol. 273: R317-R323).

[5] = cited from earlier work
[6] = 80 pmoles/kg bolus, more than 5-fold with meal alone
[7] = L-365,260 80 pmoles/kg 5 min bolus before meal gavage
[8] = single i.v. doses 80 and 120 mg

NC(N)=Nc1nc(CSCCC(N)=NS(N)(=O)=O)cs1 [Famotidine, famotidine]
Peak inhibition of acid output ([1]; single i.v. dose 20 mg): 94%
hourly AO averaged over the 24-h period ([1]; single i.v. dose 20 mg): 18.2 mEq/h
loss of acid-suppressing effectiveness ([1]; single i.v. dose 20 mg): lost effectiveness after 6 h
Acid Output, Treatment Period 0-6 h ([1]; single i.v. dose 20 mg): 4.4 ± 2.5 mEq/h
Acid Output, Treatment Period 6-12 h ([1]; single i.v. dose 20 mg): 17.7 ± 5.1 mEq/h
Acid Output, Treatment Period 12-18 h ([1]; single i.v. dose 20 mg): 25.8 ± 9.3 mEq/h
Acid Output, Treatment Period 18-24 h ([1]; single i.v. dose 20 mg): 25.0 ± 10.4 mEq/h
duration of action (time AO remained <10 mEq/h) ([1]; single i.v. dose 20 mg): 6.5 ± 2.1 h
onset of response (time until AO decreased to <10 mEq/h and remained below for 1 h) ([1]; single i.v. dose 20 mg): 0.5 ± 0.2 h
subjects who withdrew because of adverse events [2]: No subjects
adverse events reported ([2]; i.v. 20 mg group under continuous PG infusion): Three subjects from the famotidine group complained of abdominal pain and dyspepsia and were noted to have small amounts of blood in their NG aspirate

Cc1cccc(NC(=O)N[C@@H]2N=C(c3ccccc3)c3ccccc3N(C)C2=O)c1 [L-365,260]
inhibition of meal-stimulated increase in sodium and water excretion (CCKB/gastrin receptor [3]; 80 pmoles/kg bolus): up to 80%
effect on meal-stimulated increase in urine flow rate (CCKB/gastrin receptor [3]; 80 pmoles/kg bolus, compared to vehicle alone): nearly completely inhibited
meal-stimulated increase in fractional excretion of sodium (FeNa) in presence of antagonist (CCKB/gastrin receptor [3]; [6]): 2 fold
meal-stimulated increase in urinary sodium (UNaV) in presence of antagonist (CCKB/gastrin receptor [3]; [6]): 2 fold
effect on meal-induced increase in glomerular filtration rate (GFR) (CCKB/gastrin receptor [3]; [7]): inhibited
effect on meal-induced increase in renal blood flow (RBF) (CCKB/gastrin receptor [3]; [7]): inhibited
effect on Mean Arterial Pressure (MAP) (CCKB/gastrin receptor [3]; meal gavage study period, 80 pmoles/kg bolus): No effect
effect on gastrin-stimulated FeNa (CCKB/gastrin receptor [4]): returned to near baseline values
effect on gastrin-stimulated changes in urine flow rate (CCKB/gastrin receptor [4]): completely antagonized
effect on gastrin-stimulated elevation in urinary excretion of sodium (CCKB/gastrin receptor [4]): returned to near baseline values
effect on meal induced inhibition of Na+/K+-ATPase activity (Na+-K+-ATPase): complete reversal

COc1ccnc(C[S+]([O-])c2nc3ccc(OC(F)F)cc3[nH]2)c1OC (stereo not shown) [Pantoprazole, pantoprazole]
AO suppressed to ([1]; 80 and 120 mg doses, all subjects, after 1 h and for the full 24-h period): < 10 mEq/h
AO suppressed to ([1]; all i.v. doses (20, 40, 80, 120 mg)): < 10 mEq/h
time after administration at which acid-suppressing activity was observed ([1]; i.v., in general): 15 to 20 min
Peak inhibition of acid output ([1]; single i.v. dose 20 mg): 83%
hourly AO averaged over the 24-h period ([1]; single i.v. dose 20 mg): 11.9 mEq/h
Acid Output, Treatment Period 0-6 h ([1]; single i.v. dose 20 mg): 11.7 ± 10.5 mEq/h
Acid Output, Treatment Period 6-12 h ([1]; single i.v. dose 20 mg): 13.6 ± 13.3 mEq/h
Acid Output, Treatment Period 12-18 h ([1]; single i.v. dose 20 mg): 15.1 ± 13.7 mEq/h
Acid Output, Treatment Period 18-24 h ([1]; single i.v. dose 20 mg): 14.2 ± 8.6 mEq/h
duration of action (time AO remained <10 mEq/h) ([1]; single i.v. dose 20 mg): 8.4 ± 8.0 h
Peak inhibition of acid output ([1]; single i.v. dose 40 mg): 90%
hourly AO averaged over the 24-h period ([1]; single i.v. dose 40 mg): 7.6 mEq/h
Acid Output, Treatment Period 0-6 h ([1]; single i.v. dose 40 mg): 8.1 ± 5.4 mEq/h
Acid Output, Treatment Period 6-12 h ([1]; single i.v. dose 40 mg): 4.8 ± 4.0 mEq/h
Acid Output, Treatment Period 12-18 h ([1]; single i.v. dose 40 mg): 7.3 ± 4.1 mEq/h
Acid Output, Treatment Period 18-24 h ([1]; single i.v. dose 40 mg): 10.1 ± 3.7 mEq/h
Peak inhibition of acid output ([1]; single i.v. dose 80 mg): 99%
hourly AO averaged over the 24-h period ([1]; single i.v. dose 80 mg): 3.3 mEq/h
Acid Output, Treatment Period 0-6 h ([1]; single i.v. dose 80 mg): 2.4 ± 1.5 mEq/h
Acid Output, Treatment Period 6-12 h ([1]; single i.v. dose 80 mg): 1.2 ± 0.6 mEq/h
Acid Output, Treatment Period 12-18 h ([1]; single i.v. dose 80 mg): 3.7 ± 1.9 mEq/h
Acid Output, Treatment Period 18-24 h ([1]; single i.v. dose 80 mg): 6.1 ± 3.2 mEq/h
duration of action (time AO remained <10 mEq/h) ([1]; single i.v. dose 80 mg): 21.2 ± 1.9 h
onset of response (time until AO decreased to <10 mEq/h and remained below for 1 h) ([1]; single i.v. dose 80 mg): 0.8 ± 0.3 h
Peak inhibition of acid output ([1]; single i.v. dose 120 mg): 100%
hourly AO averaged over the 24-h period ([1]; single i.v. dose 120 mg): 2.4 mEq/h
Acid Output, Treatment Period 0-6 h ([1]; single i.v. dose 120 mg): 1.3 ± 0.8 mEq/h
Acid Output, Treatment Period 6-12 h ([1]; single i.v. dose 120 mg): 0.7 ± 0.2 mEq/h
Acid Output, Treatment Period 12-18 h ([1]; single i.v. dose 120 mg): 3.7 ± 0.7 mEq/h
Acid Output, Treatment Period 18-24 h ([1]; single i.v. dose 120 mg): 5.2 ± 0.4 mEq/h
onset of response (time until AO decreased to <10 mEq/h and remained below for 1 h) ([1]; single i.v. dose 120 mg): 0.4 ± 0.2 h
duration of acid output suppression [1, 8]: > 20 h
onset of action [1, 8]: < 1 h
suppression of acid output ([1]; single i.v. doses 80 and 120 mg, all subjects): 99-100%
suppression of acid output ([1]; single i.v. doses 80 and 120 mg, all subjects, listed as pantoprazole): > 90%
duration of acid output suppression ([1]; single i.v. doses 80 and 120 mg, listed as pantoprazole): ~24 h and < 21 h
subjects who withdrew because of adverse events [2]: Three

CSCC[C@H](NC(=O)[C@H](Cc1c[nH]c2ccccc12)NC(=O)CCNC(=O)OC(C)(C)C)C(=O)N[C@@H](CC(=O)O)C(=O)N[C@@H](Cc1ccccc1)C(N)=O [Pentagastrin, N-t-butyloxycarbonyl-Beta-alanyl-L-tryptophyl-L-methionyl-L-aspartyl-L-phenyl-alanyl amide]
solubility in dimethylformamide and dimethylsulfoxide [5]: soluble
solubility in water, ethanol, ether, benzene, chloroform, ethyl acetate [5]: almost insoluble
